Assay results taken from patent US20130030006A1, “AGENT FOR PREVENTING OR TREATING DISEASES ACCOMPANIED BY URINARY PAIN” (priority 2010, published 2013).

Key:
FAAH = target: T1, FAAH (Homo sapiens, UniProt O00519); assay: Measurement of IC50 value of substance inhibiting FAAH activity using human bladder epithelial carcinoma-derived cell line 5637; type: cell-based
T1 construct: Human bladder epithelial carcinoma-derived cell line, 5637 cells (HTB-9; host or cells: 5637 human bladder epithelial carcinoma cells
T1 sequence (O00519 1-579): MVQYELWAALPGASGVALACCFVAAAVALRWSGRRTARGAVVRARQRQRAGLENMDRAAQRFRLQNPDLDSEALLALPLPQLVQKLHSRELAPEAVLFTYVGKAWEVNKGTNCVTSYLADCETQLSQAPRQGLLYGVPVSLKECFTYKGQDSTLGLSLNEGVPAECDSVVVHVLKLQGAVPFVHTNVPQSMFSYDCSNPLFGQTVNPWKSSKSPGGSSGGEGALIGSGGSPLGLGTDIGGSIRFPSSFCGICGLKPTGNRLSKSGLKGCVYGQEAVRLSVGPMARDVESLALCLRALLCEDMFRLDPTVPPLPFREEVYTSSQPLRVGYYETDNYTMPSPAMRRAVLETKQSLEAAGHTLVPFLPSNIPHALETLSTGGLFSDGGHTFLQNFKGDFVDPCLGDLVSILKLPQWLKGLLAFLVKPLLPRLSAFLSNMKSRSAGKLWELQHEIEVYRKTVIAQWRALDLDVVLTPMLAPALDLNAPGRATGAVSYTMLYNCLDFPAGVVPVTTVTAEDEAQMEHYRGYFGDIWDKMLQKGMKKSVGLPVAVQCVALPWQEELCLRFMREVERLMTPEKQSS
Procedure: Screening of Substance Inhibiting FAAH Activity by Using Human Bladder Epithelial Carcinoma-Derived Cell Line
(1) Screening of Substance Inhibiting FAAH Activity
Human bladder epithelial carcinoma-derived cell line, 5637 cells (HTB-9; ATCC) were seeded in a 48-well cell culture plate in an amount of 1×10^5 cells/well by using RPMI 1640 medium (Invitrogen) containing 10% fetal bovine serum (HyClone), followed by incubation at 37° C. for 12 hours or longer, and then the cells in each well were washed with 400 μl of a buffer (Hank's Balanced Salt Solution, 20 mM Hepes-NaOH (pH 7.4)). A test substance dissolved in DMSO was added to a substrate solution (the above buffer containing 3 μCi/ml radiolabeled anandamide (anandamide [ethanolamine 1-^3H]) and 10 μM anandamide) so as to have a concentration from 0.003 nM to 30 nM, and as a control, DMSO was added alone. 100 μl/well of the substrate solution was added to the cells, followed by incubation in a CO2 incubator at 37° C. for 30 minutes. […] A substance decreasing a measured value compared to the control was selected as a substance inhibiting FAAH activity. […]

[1] = system: rat model with testis pain; assay: Rat model with testis pain (acetic acid into testes, writhing); type: in vivo
Procedure: Action of Compound with Respect to Rat Model with Testis Pain
The analgesic action of the compound against testis pain was examined using a pathological model. If 1% acetic acid is administered at 1 ml/kg to right and left testes of a rat by using an injection needle, pain behavior (writhing) accompanied by testis pain is observed, which makes it possible to evaluate drug efficacy on the pain behavior. […] The rats were transferred to a cylindrical acryl cage having a diameter of 30 cm and a height of 50 cm, and the number of times of pain behavior shown for 5 minutes to 15 minutes after the acetic acid administration was measured.

[2] = system: rat model with bladder pain; assay: Rat model with bladder pain (cyclophosphamide pre-treated, bladder expansion); type: in vivo
Procedure: Action of Compound with Respect to Rat Model with Bladder Pain
The analgesic action of the compound against bladder pain was examined using a pathological model. Cyclophosphamide (150 mg/kg) was administered intraperitoneally, and after two days, physiological saline was injected under a non-restraint condition, at a rate of 45 ml/h via a cannula inserted transurethrally into the bladder, thereby rapidly expanding the bladder. Due to rapid expansion of the bladder, amplification of electromyogram spikes in external oblique abdominal muscle accompanying behavior relating to pain was confirmed. The injection amount at this point in time can be taken as a threshold of bladder pain, which makes it possible to evaluate drug efficacy with respect to the threshold of bladder pain. […] For the rats pre-treated with cyclophosphamide, the threshold of bladder pain before and after the administration of a test compound was measured, and the change in amount (Δ ml) was investigated. In order to obtain a value before administration, bladder expansion was performed until a stabilized threshold of bladder pain was consecutively obtained three times, and the average of the threshold of bladder pain of the final three times was taken as a measured value. […] The average of the threshold of bladder pain consecutively measured three times was taken as a value measured after administration.

NC(=O)c1cncc(OC(=O)N2CCC(CCc3cccc(C(=O)N4CCCCC4)c3)CC2)c1 [Compound I, 5-(aminocarbonyl)pyridin-3-yl 4-{2-[3-(piperidin-1-ylcarbonyl)phenyl]ethyl}piperidine-1-carboxylate] was tested, and the IC50 (FAAH) was 0.16 nM.
For O=C(Nc1ccccc1)C1CCN(C(=O)Oc2cccnc2)CC1 [Compound L, pyridin-3-yl 4-(anilinocarbonyl)piperidine-1-carboxylate], the “Number of times of pain behavior, compound-administered group” value ([1]; male Wistar rats, 3 mg/5 ml/kg oral, 120 minutes before measurement, counted 5 to 15 minutes after acetic acid) was 6.7 and the “Threshold of bladder pain (amount of physiological saline injected), compound-administered group” value ([2]; male SD rats, 3 mg/5 ml/kg oral, 120 minutes before measurement, change before vs after administration) was 0.173 Δ ml.
With NC(=O)c1cncc(OC(=O)N2CCC(CCc3cccc(C(=O)N4CCCC4)c3)CC2)c1 [Compound J, 5-(aminocarbonyl)pyridin-3-yl 4-{2-[3-(pyrrolidin-1-ylcarbonyl)phenyl]ethyl}piperidine-1-carboxylate] the “Number of times of pain behavior, compound-administered group” value ([1]; rat, in vivo, po) was 9.5 and the “Threshold of bladder pain (amount of physiological saline injected), compound-administered group” value ([2]; rat, in vivo, po) was 0.150 Δ ml.
